Here are results for three compounds from patent publication US8623909B2, “Prophylactic/therapeutic agents for lifestyle-related diseases” (priority 2008, dated 2014).

Molecules are shown by their SMILES.

In one experiment the test system is PSA promoter. As to the kind of experiment: PSA promoter-luciferase activity in LNCaP cells (dual-luciferase reporter). Format: cell-based, human. The following applies: 10^−5M, 24 hours, control (DMSO) 1.0. The procedure:
Plasmid pCMV-hAR was constructed based on a method previously reported by the inventors of the present invention (J. Biol. Chem., 282, 7329-7338). In addition, reporter plasmids consisting of PGL3-PSA (human) and PGL3-UCP-1 (mouse) were also constructed based on a method previously reported by the inventors of the present invention (Diabetes, 54, 1000-1008). Furthermore, pRL-SV40 was acquired commercially.
NIH-3T30-L1 mouse preadipocytes were cultured in Dulbecco's modified Eagle's medium (Sera Laboratories) containing 10% fetal calf serum. In addition, cells of human prostate cancer cell line LNCap were cultured in RPMI 1640 medium (Sigma) containing 10% fetal calf serum. Furthermore, these two types of cell lines were obtained from the American Type Culture Collection (Manassas).
The NIH-3T3-L1 cells of 2) above were co-transfected with pCMV-hAR, pRL-SV40 and PGL3-UCP-1 (mouse) in a 24-well plate using an Effectene Transfection Kit (Qiagen) and a Fugene HD Kit (Roche Diagnostics). In addition, the LNCaP cells of 2) above were similarly co-transfected with pCMV-hAR, pRL-SV40 and PGL3-PSA (human).
4) Measurement of Effect on PSA Promoter-Luciferase Activity in LNCaP Cells
The LNCaP cells co-transfected in 3) above were cultured for 24 hours in DMEM or RPMI 1640 containing 10% fetal calf serum treated with dextran-charcoal and a test compound (dissolved in a small amount of DMSO) 24 hours after transfection. Subsequently, the activities of firefly luciferase and Renilla luciferase were assayed in a 24-well plate using the Dual-Luciferase Reporter Assay System (Promega) in accordance with the protocol of Minilumat LB9507 (Berthold Technologies). Furthermore, the value of firefly luciferase activity were normalized based on the internal Renilla control, and were presented as relative luciferase activity.
In general terms: In a reporter assay the amount or activity of a reporter protein is the signal.

The next experiment concerns PSA mRNA in LNCaP cells. As to the kind of experiment: PSA mRNA expression level in LNCaP cells (real-time PCR). Format: cell-based, human. The settings on record: 10^−5M, 24 hours, control (DMSO) 1.0. The procedure:
(§1) 1) Extraction of Total RNA
(§2) After respectively culturing the LNCaP cells and NIH-3T3-L1 cells co-transfected in 1) to 3) above in 6-well plates, the cells were cultured for 24 hours in EMEM or RPMI 1640 containing 10% fetal calf serum treated with dextran-charcoal and a test compound (dissolved in a small amount of DMSO). Subsequently, total RNA was respectively extracted using Isogen (Wako Pure Chemical Industries).
(§3) 5 μg aliquots of each total RNA obtained in 1) above were reverse-transcribed to first strand cDNA using a Superscript III Kit (Invitrogen) and brought to a final volume of 20 μL. Real-time PCR was carried out using LightCycler FastStart DNA Master SYBR Green I (Roche Diagnostic) in order to quantify expression of PSA mRNA in LNCaP cells and UCP-1 mRNA in NIH-3T3-L1 cells. PCR was carried out under the following conditions in 20 μL of reaction mixture: 50 cycles consisting of denaturing for 3 seconds at 95° C., annealing for 10 seconds at 60° C. and elongating for 25 seconds at 72° C. β-actin mRNA was also simultaneously amplified for use as an internal standard. Real-time PCR value for each transcription product were calculated as a relative ratio to β-actin.

Experiment [1] relates to UCP-1 mRNA in NIH-3T3-L1 cells. The experiment is described as follows: UCP-1 mRNA expression level in NIH-3T3-L1 cells (real-time PCR). Format: cell-based, mouse. The settings on record: 10^−5M, 24 hours, control (DMSO) 1.0. Here is the method:
as §1, §2, §3
On the technique in general: In qPCR the cycle at which signal appears reflects the starting amount.

A further experiment concerns the target T1, AR (Homo sapiens, UniProt P10275).
T1 sequence (P10275 1-920): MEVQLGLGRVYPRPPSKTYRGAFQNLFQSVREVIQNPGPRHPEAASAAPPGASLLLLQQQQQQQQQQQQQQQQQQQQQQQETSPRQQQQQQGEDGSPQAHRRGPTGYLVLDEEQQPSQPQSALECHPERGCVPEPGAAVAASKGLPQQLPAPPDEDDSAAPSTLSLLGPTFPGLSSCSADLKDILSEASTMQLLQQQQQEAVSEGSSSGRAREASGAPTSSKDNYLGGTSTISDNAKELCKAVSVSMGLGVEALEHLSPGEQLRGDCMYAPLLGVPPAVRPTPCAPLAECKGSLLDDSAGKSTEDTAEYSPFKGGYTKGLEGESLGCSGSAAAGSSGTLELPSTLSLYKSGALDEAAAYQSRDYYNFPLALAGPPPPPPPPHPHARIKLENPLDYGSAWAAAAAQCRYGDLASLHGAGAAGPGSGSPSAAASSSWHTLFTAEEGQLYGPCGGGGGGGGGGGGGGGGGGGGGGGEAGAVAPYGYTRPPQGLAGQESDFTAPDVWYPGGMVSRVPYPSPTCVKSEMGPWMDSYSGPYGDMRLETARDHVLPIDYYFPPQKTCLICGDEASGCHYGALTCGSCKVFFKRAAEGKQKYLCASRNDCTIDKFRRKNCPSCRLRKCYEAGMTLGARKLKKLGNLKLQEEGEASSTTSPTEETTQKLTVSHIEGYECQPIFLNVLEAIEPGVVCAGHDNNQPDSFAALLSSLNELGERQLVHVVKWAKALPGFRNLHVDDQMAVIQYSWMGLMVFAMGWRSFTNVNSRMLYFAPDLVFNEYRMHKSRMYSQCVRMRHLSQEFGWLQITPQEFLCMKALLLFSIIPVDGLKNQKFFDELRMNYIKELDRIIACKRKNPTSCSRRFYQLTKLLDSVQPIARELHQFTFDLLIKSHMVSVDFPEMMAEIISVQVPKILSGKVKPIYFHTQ
The settings on record: previous studies of the inventors; cited from earlier work.

For the compound `CO[C@H]1CC[C@@]2(C)C(=CCC3C4CCOC[C@@]4(C)CCC32)C1` (stereo partly drawn) [Compound of formula (IIIa), 16a-homo-16a-oxestra-5-ene-3β-methoxide], in the experiment with PSA promoter, the “Value of luciferase transcription activity (PSA promoter, relative luciferase activity)” value is 0.8. The “PSA mRNA (relative ratio to β-actin mRNA)” value in the experiment with PSA mRNA in LNCaP cells was 0.8. In experiment [1], the “UCP-1 mRNA (relative ratio to β-actin mRNA)” value stood at 1.8.
As for `CC(=O)O[C@H]1CC[C@]2(C)C3CC[C@]45C(=O)O[C@H](C)[C@H]4CCC5C3CC[C@H]2C1` (stereo partly shown) [Compound of formula (IIa)], the “Value of luciferase transcription activity (PSA promoter, relative luciferase activity)” value in the experiment on PSA promoter was found to be 0.8. Further, the “PSA mRNA (relative ratio to β-actin mRNA)” value in the experiment with PSA mRNA in LNCaP cells is on record as 0.9. In addition, the “UCP-1 mRNA (relative ratio to β-actin mRNA)” value in experiment [1] came out at 1.4.
With `CC(C)(O)C(=O)Nc1ccc([N+](=O)[O-])c(C(F)(F)F)c1` [hydroxyflutamide], the “Formation of subnuclear AR foci (dots) (in words)” value at AR is “do not form foci (dots)”.
